{"source": "patent US5360809A", "about": "“Imidazole compounds and their use as calcium channel blockers” (NeuroSearch A/S, priority 1992, dated 1994)", "system": "voltage operated calcium channels (P- and L-type), rat synaptosomes", "assay": "45Ca influx into rat synaptosomes under depolarized conditions", "type": "biochemical, rat (male Wistar)", "settings": "depolarization induced 45Ca uptake, rat cortex synaptosomes", "source_text": "A high influx of calcium from extracelluar compartments into neurons is seen after opening of voltage operated calcium channels. Such opening of calcium channels may be induced by depolarization of neuronal membranes. A crude synaptosome preparation contains small vesicles surrounded by neuronal membranes, and it is possible to study an opening of the voltage operated calcium channels in such a preparation. In the below described test influx of ^45 Ca into rat synaptosomes is studied under depolarized conditions. The effect of test substances on the depolarization induced calcium uptake can thus be studied.\nThe compounds of the present invention which potently block the calcium influx of up to 20 to 40% in this test are believed to be blockers of predominantly the P-type of calcium channels and the compounds of the present invention, which at somewhat higher concentrations block the calcium influx more completely or totally, are believed to be both P- and L-type calcium channel blockers, or predominantly L-type of calcium channel blockers.\nThe cerebral cortex from a male Wistar rat is homogenized in 20 ml ice cold 0.32M saccharose. In the following steps the temperature is kept at 0° C. to 4° C. The homogenate is centrifuged at 1,000×g for 10 minutes and the supernatant recentrifuged for 20 minutes at 18,000×g. The obtained pellet is resuspended in 0.32M saccharose (10 ml per g of original tissue). Aliquots of 0.05 ml of the hereby obtained synaptosome suspension are added to glass tubes containing 0.625 ml of a NaCl buffer (136 mM NaCl, 4 mM KCl, 0.35 mM CaCl2, 1.2 mM MgCl2, 20 mM Tris HCl, 12 mM glucose, pH 7.4) as well as 0.025 ml of different test substances in 48% ethanol. These tubes are pre-incubatedfor 30 minutes on ice and thereafter for 6 minutes at 37° C. ^45 Ca uptake is initiated by addition to above glass-tubes of 0.4 ml ^45 CACl2 (specific activity: 29-39 Ci/g; […]). […] The radioactivity on the filters are measured by liquid scintillation spectrometry. […]"}
{"compound": "Fc1ccc2c(c1)ncn2-c1ccc(I)cc1", "note": "[1-(4-iodophenyl)-5-fluoro-benzimidazole]", "values": [{"measurement": "IC50", "value": 7, "unit": "µM"}]}
{"compound": "Nc1cccc(-c2cccc(-n3cnc4cc(C(F)(F)F)ccc43)c2)c1", "note": "[1-[3-(3-aminophenyl)-phenyl]-5-trifluoromethyl-benzimidazole]", "values": [{"measurement": "IC50", "value": 14, "unit": "µM"}]}
{"compound": "FC(F)(F)c1ccc2c(c1)ncn2-c1cccc(-c2ccsc2)c1", "note": "[1-[3-(3-thienyl)phenyl-5-trifluoromethyl]-benzimidazole]", "values": [{"measurement": "IC50", "value": 3.4, "unit": "µM"}]}
